Measured values taken from US10168342B2, “Lipid probes and uses thereof” (THE SCRIPPS RESEARCH INSTITUTE, priority 2015, dated 2019).
Like-named read-outs stand apart in the source and are kept apart here.

Tests used:
[1] = target: T1, AEA-DA lipid probe targets in Neuro2a cells (Mus musculus, UniProt Q8BTX9)
T1 sequence (Q8BTX9 1-330): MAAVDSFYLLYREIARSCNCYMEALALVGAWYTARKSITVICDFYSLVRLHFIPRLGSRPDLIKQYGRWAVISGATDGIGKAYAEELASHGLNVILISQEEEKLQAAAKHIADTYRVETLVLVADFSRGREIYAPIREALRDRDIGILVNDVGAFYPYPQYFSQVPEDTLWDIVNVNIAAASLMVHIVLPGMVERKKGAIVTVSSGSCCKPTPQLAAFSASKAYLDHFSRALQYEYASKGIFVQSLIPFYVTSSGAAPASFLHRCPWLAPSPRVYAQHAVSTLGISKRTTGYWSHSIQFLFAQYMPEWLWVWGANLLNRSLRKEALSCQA

[2] = target: T2, AEA-DA lipid probe targets in Neuro2a cells (Mus musculus, UniProt Q8VHE0)
T2 sequence (Q8VHE0 1-760): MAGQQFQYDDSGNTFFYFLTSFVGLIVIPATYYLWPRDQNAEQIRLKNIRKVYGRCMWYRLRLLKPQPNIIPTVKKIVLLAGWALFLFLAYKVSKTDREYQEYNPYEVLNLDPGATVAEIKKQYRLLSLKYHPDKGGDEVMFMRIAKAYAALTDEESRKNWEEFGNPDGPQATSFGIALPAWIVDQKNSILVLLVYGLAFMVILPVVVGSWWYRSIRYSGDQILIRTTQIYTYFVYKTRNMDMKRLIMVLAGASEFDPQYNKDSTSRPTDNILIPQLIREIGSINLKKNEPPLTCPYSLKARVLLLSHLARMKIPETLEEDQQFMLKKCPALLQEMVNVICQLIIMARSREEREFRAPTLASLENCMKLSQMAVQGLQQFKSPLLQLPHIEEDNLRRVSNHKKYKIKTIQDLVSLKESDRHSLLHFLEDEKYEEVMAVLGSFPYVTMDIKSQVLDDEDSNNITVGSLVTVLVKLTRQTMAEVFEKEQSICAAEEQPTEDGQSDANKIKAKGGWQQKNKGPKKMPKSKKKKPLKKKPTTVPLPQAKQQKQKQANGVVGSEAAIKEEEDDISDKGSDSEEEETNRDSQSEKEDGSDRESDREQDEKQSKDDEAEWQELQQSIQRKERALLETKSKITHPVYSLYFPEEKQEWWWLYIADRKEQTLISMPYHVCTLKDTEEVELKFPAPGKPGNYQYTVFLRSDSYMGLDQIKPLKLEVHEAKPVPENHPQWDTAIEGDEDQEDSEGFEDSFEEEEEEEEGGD

[3] = target: T3, AEA-DA lipid probe targets in Neuro2a cells (Mus musculus, UniProt Q91X78)
T3 sequence (Q91X78 1-348): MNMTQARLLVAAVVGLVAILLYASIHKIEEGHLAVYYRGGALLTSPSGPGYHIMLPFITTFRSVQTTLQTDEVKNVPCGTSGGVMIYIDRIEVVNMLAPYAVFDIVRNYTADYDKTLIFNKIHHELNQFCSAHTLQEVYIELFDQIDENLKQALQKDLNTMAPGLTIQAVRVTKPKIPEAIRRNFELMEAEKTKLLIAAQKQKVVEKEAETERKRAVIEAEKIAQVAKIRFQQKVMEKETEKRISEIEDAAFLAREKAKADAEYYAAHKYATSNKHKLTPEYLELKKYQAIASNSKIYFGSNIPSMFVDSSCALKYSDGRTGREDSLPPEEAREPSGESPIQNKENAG

[4] = target: T4, AEA-DA lipid probe targets in Neuro2a cells (Mus musculus, UniProt Q91XD7)
T4 sequence (Q91XD7 30-420): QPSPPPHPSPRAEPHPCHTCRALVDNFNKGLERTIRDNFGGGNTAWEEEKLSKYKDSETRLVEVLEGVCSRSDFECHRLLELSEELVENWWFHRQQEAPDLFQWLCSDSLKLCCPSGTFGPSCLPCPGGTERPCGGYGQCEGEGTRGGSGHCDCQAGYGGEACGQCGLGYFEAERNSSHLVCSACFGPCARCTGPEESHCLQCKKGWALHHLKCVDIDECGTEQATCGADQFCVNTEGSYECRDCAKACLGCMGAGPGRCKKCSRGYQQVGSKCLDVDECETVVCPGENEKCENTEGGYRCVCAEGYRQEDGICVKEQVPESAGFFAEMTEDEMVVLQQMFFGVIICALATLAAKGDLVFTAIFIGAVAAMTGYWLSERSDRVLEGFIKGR

[5] = target: T5, AEA-DA lipid probe targets in Neuro2a cells (Mus musculus, UniProt Q9WU62)
T5 sequence (Q9WU62 1-880): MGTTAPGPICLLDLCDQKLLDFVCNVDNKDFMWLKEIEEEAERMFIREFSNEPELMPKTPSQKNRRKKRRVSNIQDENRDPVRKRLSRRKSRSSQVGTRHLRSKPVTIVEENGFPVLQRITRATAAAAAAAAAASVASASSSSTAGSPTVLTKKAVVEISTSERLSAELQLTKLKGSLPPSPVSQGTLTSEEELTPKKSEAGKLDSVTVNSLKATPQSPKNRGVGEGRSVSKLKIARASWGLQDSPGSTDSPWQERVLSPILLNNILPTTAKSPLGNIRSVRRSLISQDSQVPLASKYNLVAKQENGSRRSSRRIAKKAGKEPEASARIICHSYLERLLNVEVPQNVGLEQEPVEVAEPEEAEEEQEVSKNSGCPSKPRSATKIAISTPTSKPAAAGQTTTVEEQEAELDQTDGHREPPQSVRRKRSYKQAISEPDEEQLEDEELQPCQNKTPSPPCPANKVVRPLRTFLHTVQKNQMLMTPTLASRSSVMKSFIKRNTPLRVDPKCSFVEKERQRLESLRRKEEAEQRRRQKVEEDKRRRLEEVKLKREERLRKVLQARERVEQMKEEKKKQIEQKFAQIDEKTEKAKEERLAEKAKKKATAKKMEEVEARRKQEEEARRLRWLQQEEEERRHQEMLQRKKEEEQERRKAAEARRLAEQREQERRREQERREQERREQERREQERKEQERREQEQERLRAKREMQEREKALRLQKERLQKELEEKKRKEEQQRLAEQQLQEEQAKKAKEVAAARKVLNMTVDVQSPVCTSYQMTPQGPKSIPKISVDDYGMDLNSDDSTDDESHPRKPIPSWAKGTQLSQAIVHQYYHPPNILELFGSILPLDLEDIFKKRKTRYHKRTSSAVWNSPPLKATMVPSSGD

CCCCC/C=C\C/C=C\C/C=C\C/C=C\CCCC(=O)NCCO [AEA, anandamide, reference compound]
SILAC ratio, Hsdl1 ([1]; competitor 200 μM): 2.5 | SILAC ratio Sec63 ([2]; competitor 200 μM): 1.5 | SILAC ratio Erlin1 ([3]; competitor 200 μM): 1.7 | SILAC ratio, Creld1 ([4]; competitor 200 μM): 1.8 | SILAC ratio Incenp ([5]; competitor 200 μM): 1.4

O=C(/C=C/c1cccnc1)NCCCCC1CCN(C(=O)c2ccccc2)CC1 [FK-866, reference compound]
SILAC ratio, Hsdl1 ([1]; competitor 25 μM): 1.0 | SILAC ratio Sec63 ([2]; competitor 25 μM): 1.1 | SILAC ratio Erlin1 ([3]; competitor 25 μM): 1.0 | SILAC ratio, Creld1 ([4]; competitor 25 μM): 1.3 | SILAC ratio Incenp ([5]; competitor 25 μM): 0.8

CN1CCN(C(=O)c2c(-c3ccccc3)c3cc([N+](=O)[O-])ccc3n2C)CC1 [KML110, (1-Methyl-5-nitro-3-phenyl-1H-indol-2-yl)(4-methylpiperazin-1-yl)methanone]
SILAC ratio, Hsdl1 ([1]; competitor 25 μM): 1.4 | SILAC ratio Sec63 ([2]; competitor 25 μM): 1.5 | SILAC ratio, Creld1 ([4]; competitor 25 μM): 1.8 | SILAC ratio Incenp ([5]; competitor 25 μM): 1.2

CN1CCN(C(=O)c2[nH]c3ccc([N+](=O)[O-])cc3c2-c2ccccc2)CC1 [MJN228, (4-Methylpiperazin-1-yl)(5-nitro-3-phenyl-1H-indol-2-yl)methanone]
SILAC ratio, Hsdl1 ([1]; competitor 10 μM): 1.1 | SILAC ratio, Hsdl1 ([1]; competitor 25 μM): 1.2 | SILAC ratio, Hsdl1 ([1]; competitor 50 μM): 1.0 | SILAC ratio, Hsdl1 ([1]; competitor 100 μM): 1.5 | SILAC ratio Sec63 ([2]; competitor 10 μM): 1.4 | SILAC ratio Sec63 ([2]; competitor 25 μM): 1.5 | SILAC ratio Sec63 ([2]; competitor 50 μM): 1.8 | SILAC ratio Sec63 ([2]; competitor 100 μM): 1.8 | SILAC ratio Erlin1 ([3]; competitor 10 μM): 1.4 | SILAC ratio Erlin1 ([3]; competitor 25 μM): 1.1 | SILAC ratio Erlin1 ([3]; competitor 100 μM): 1.1 | SILAC ratio, Creld1 ([4]; competitor 10 μM): 1.4 | SILAC ratio, Creld1 ([4]; competitor 25 μM): 1.8 | SILAC ratio, Creld1 ([4]; competitor 50 μM): 2.4 | SILAC ratio, Creld1 ([4]; competitor 100 μM): 4.2 | SILAC ratio Incenp ([5]; competitor 10 μM): 1.4 | SILAC ratio Incenp ([5]; competitor 25 μM): 1.2 | SILAC ratio Incenp ([5]; competitor 50 μM): 1.8 | SILAC ratio Incenp ([5]; competitor 100 μM): 1.7

C=CCN(C)CCCCCCOc1ccc(C(=O)c2ccc(Br)cc2)c(F)c1 [Ro 48-8071, reference compound]
SILAC ratio, Hsdl1 ([1]; competitor 25 μM): 0.9 | SILAC ratio Sec63 ([2]; competitor 25 μM): 1.0 | SILAC ratio Erlin1 ([3]; competitor 25 μM): 1.2 | SILAC ratio, Creld1 ([4]; competitor 25 μM): 1.4
